# In publication PMC5602538, “Assessment of the Drug Interaction Potential of Unconjugated and GalNAc3-Conjugated 2′-MOE-ASOs” (Molecular Therapy. Nucleic Acids, 2017):
# {GalNAc3} = trishexylamino-C6 triantennary GalNAc conjugate; e = 2'-O-(2-methoxyethyl) (MOE); d = 2'-deoxy (DNA)
# How the values were obtained:
# CYP1A2 = molecular target: T1, CYP1A2 (Homo sapiens, UniProt P05177); experiment: CYP1A2 inhibition in cryopreserved human hepatocyte suspensions (phenacetin probe); format: in vitro ADME; details: human hepatocytes
# T1 construct: Human hepatocytes (pooled from 5 donors); host or cells: cryopreserved human hepatocytes in suspension, pooled from 5 donors
# T1 sequence (P05177 whole entry): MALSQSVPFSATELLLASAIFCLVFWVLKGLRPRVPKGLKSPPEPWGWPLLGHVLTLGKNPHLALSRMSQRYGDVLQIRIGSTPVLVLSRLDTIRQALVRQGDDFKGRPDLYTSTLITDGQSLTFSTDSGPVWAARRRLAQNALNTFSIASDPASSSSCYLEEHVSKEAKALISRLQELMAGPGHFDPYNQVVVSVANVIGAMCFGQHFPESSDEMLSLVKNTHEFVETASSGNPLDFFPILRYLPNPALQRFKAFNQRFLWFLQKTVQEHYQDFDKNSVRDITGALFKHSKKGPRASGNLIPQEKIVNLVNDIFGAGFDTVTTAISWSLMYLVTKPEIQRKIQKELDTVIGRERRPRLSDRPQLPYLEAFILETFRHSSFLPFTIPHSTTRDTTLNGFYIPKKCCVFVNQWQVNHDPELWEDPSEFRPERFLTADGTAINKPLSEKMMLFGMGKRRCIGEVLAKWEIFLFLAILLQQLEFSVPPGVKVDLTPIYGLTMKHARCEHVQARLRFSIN
# Experimental: (§1) Preincubations were performed in 50 μL of Williams’ Medium E with 2 mM salicylamide. The salicylamide was included to reduce possible phase II conjugation to the precursor phase I metabolites. […] Human hepatocytes (pooled from 5 donors) were thawed and prepared according to the vendor’s protocol. […] Incubations were carried out at 37°C with 5% CO2. The incubation time was 45 min for phenacetin, diclofenac, dextromethorphan, midazolam, bupropion, chlorzoxazone, and testosterone and 90 min for paclitaxel and (S)-mephenytoin. The reactions were stopped by adding 200 μL of ice-cold acetonitrile (can) with tolbutamide (100 ng/mL) as the internal standard to 100 μL of hepatocyte suspension (1:2, v/v). The 96-well plate was then vortexed at 1,700 rpm for 3 min and centrifuged at 3,500 rpm for 10 min at 20°C. The supernatants were analyzed using liquid chromatography-tandem MS (LC-MS/MS).
# CYP2C19 = CYP2C19 (Homo sapiens, UniProt P33261); details: hepatocytes
# Sequence of CYP2C19 (P33261 whole entry): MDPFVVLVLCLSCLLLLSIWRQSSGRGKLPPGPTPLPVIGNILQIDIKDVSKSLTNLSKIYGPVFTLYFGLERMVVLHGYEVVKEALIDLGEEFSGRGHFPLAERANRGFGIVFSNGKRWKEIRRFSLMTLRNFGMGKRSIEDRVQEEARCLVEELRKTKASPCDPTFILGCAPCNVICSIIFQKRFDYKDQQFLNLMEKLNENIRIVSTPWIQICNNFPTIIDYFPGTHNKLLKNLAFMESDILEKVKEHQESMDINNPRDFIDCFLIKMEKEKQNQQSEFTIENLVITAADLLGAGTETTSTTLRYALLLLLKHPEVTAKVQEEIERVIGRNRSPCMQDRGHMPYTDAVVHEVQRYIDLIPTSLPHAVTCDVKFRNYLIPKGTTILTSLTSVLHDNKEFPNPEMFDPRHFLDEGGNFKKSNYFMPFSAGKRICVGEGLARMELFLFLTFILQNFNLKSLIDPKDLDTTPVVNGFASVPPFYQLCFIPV
# Experimental: as §1
# CYP2D6 = CYP2D6 (Homo sapiens, UniProt P10635); details: hepatocytes
# Sequence of CYP2D6 (P10635 whole entry): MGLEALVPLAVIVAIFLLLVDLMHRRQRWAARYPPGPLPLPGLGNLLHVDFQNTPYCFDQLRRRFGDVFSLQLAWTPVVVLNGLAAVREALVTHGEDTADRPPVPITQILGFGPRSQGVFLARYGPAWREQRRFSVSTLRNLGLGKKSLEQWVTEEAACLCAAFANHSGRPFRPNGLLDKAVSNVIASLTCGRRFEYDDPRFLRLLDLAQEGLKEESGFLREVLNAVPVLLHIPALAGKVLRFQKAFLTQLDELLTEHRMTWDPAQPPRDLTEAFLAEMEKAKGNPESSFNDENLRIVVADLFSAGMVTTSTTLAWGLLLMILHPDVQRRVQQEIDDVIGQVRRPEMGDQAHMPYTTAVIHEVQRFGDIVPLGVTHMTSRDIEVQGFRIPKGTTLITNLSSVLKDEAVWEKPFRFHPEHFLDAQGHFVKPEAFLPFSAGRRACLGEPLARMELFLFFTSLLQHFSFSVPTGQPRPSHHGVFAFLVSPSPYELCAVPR
# Experimental: as §1
# CYP2C9 = CYP2C9 (Homo sapiens, UniProt P11712); details: hepatocytes
# Sequence of CYP2C9 (P11712 whole entry): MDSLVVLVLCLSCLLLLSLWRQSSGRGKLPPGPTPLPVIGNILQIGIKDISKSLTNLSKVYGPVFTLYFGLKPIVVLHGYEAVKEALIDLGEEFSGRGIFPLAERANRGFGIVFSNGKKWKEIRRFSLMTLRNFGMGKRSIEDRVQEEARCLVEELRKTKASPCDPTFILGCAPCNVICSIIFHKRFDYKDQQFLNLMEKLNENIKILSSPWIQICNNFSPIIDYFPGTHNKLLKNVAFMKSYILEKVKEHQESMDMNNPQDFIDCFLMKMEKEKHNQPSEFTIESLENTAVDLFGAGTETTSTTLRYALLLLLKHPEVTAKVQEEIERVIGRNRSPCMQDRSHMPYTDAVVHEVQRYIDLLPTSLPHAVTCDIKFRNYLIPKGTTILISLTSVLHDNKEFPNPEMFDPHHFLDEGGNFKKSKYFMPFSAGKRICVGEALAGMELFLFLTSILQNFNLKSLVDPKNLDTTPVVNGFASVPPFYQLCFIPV
# Experimental: as §1
# CYP3A4 = CYP3A4 (Homo sapiens, UniProt P08684); details: hepatocytes
# Sequence of CYP3A4 (P08684 whole entry): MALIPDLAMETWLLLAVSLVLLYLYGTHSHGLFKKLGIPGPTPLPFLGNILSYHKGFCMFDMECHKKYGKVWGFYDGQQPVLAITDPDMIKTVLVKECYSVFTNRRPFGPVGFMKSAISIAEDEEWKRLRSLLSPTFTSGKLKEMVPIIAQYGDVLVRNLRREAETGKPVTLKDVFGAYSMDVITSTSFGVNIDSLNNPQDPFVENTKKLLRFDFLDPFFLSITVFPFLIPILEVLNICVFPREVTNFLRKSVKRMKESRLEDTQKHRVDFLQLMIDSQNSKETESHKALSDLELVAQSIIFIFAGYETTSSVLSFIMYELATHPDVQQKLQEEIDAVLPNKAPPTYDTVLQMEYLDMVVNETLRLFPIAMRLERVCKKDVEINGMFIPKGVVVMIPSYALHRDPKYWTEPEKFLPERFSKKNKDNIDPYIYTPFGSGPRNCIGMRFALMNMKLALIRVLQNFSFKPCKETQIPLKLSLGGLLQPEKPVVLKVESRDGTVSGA
# Experimental: as §1
# CYP2B6 = molecular target: T2, CYP2B6 (Homo sapiens, UniProt P20813); details: hepatocytes
# T2 sequence (P20813 1-491): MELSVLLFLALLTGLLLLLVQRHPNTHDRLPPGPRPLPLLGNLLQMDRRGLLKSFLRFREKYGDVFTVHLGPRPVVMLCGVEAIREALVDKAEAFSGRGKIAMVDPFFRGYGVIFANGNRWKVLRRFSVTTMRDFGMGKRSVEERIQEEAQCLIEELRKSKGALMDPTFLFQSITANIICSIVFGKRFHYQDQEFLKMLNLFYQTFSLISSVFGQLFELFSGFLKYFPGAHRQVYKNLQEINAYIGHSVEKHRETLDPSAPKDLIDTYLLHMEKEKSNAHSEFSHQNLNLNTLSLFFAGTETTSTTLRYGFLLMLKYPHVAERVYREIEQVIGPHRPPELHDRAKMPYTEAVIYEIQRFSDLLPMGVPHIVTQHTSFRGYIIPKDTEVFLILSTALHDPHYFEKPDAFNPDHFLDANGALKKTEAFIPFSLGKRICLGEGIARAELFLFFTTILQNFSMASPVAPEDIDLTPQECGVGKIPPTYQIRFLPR
# Experimental: as §1
# OAT3 = tested on: T3, OAT3; experiment: OAT3 inhibition study in MDCK cells; format: in vitro ADME; details: 100 μM ASO, 10 μM p-aminohippurate
# T3 construct: expressed in transfected cells; host or cells: MDCK-II
# Experimental: A 96-well cell culture plate containing a monolayer of MDCK-II cells grown on a permeable support and a corresponding receiver tray was used. The basolateral compartment of the culture plate and wells were washed with warm HBSS three times, with wells of the culture plate serving as the apical compartment. The wash was aspirated by adding 150 μL of 37°C HBSS to both compartments. […] The pre-incubation buffer from both compartments was aspirated and 150 μL of the following was added to the basal compartment. […] OATP1B1, 2 μM [^3H]-estradiol-17 β-D-glucuronide; and OATP1B3, 2 μM [^3H]-cholecystokinin octapeptide (CCK-8). […] Plates were incubated at 37°C with orbital shaking at 60 rpm for 5 min. Both sides of the permeable support were washed four times with ice-cold PBS and 60 μL of cell extraction solution was added to each well. Plates were agitated for 15 min at 120 rpm, after which a 30-μL sample of the extract was collected. […] Test article concentrations, including control samples, were evaluated by an LC-MS method. Signal to noise for probe substrates was calculated by dividing the uptake of the probe substrate in transporter-expressing cells by the uptake of probe substrate in control cells not expressing the transporter of interest.
# CYP3A4 mRNA = CYP3A4 mRNA induction in plated human hepatocytes; details: ASO 100 μM, human hepatocytes 72 hr, vs PBS 1% vehicle, mean ± SD of triplicate
# Experimental: Upon receipt, sandwich-cultured cryopreserved human hepatocytes (with Matrigel) plated on collagen-coated 24-well plates were inspected under a microscope for general morphology and viability. Fresh culture medium (OptiCulture Hepatocyte Media) was added to each plate that passed the visual inspection. The plates were then placed in an incubator set to 37°C with 5% carbon dioxide (CO2) for overnight acclimation. […] During this time, cells in parallel wells were also treated with 50.0 μM omeprazole (inducer of CYP1A2), 1,000 μM phenobarbital (inducer of CYP2B6), or 10.0 μM rifampicin (inducer of CYP3A4) in triplicate, respectively.
# After collection of the supernatant for catalytic analysis, the remaining cells were washed and lysed with QIAGEN Buffer RLT from the QIAGEN RNeasy Kit. […]
# The activity of each CYP enzyme was measured by comparing the peak area ratio of the corresponding product to the peak area ratio of the internal standard. The fold induction was calculated by dividing the peak area ratio of each individual well from the treatment group by the mean of the peak area ratios obtained from the vehicle control wells. […] The ΔCƬ was calculated as follows: ΔCƬ = CƬ (CYP) − CƬ (GAPDH). […] The ΔΔCƬ was calculated as follows: ΔΔCƬ = Δ CƬ (Treatment) − Δ CƬ (Vehicle). The fold induction of the target CYP was calculated using the following equation: Fold=2^-ΔΔCT.
substance,measurement,setting,value
"ISIS 304801: 20-mer (5-10-5) 2′-MOE gapmer PS backbone antisense inhibitor of apoC-III, sequence AGCTTCTTGTCCAGCTTTAT (sugars from the 5' end e5 d10 e5, all phosphorothioate, methylation of C not given here)",IC50,CYP1A2,> 100 µM
same,IC50,CYP2C19,> 100 µM
same,IC50,CYP2D6,> 100 µM
same,IC50,CYP2C9,> 100 µM
same,IC50,CYP3A4,> 100 µM
same,IC50,CYP2B6,> 100 µM
"ISIS 681257: 20-mer 2′-MOE gapmer PS/PO mixed backbone ASO conjugated to 5′-trishexylamino GalNAc3, targets Lp(a), sequence TGCTCCGTTGGTGCTTGTTC (5' {GalNAc3}, sugars by position and backbone not given here; 2'-MOE gapmer with mixed PS/PO backbone)","Enhancement of probe substrate uptake, OAT3",OAT3,18.2%
same,Fold induction of CYP3A4 mRNA,CYP3A4 mRNA,0.213 ± 0.0471 fold
"ISIS 420915: 20-mer 2′-MOE gapmer PS backbone antisense inhibitor of transthyretin, sequence TCTTGGTTACATGAAATCCC (all phosphorothioate, sugars by position and methylation of C not given here; 2'-MOE gapmer)",IC50,CYP1A2,> 100 µM
same,IC50,CYP2C19,> 100 µM
same,IC50,CYP2D6,> 100 µM
same,IC50,CYP2C9,> 100 µM
same,IC50,CYP3A4,> 100 µM
same,IC50,CYP2B6,> 100 µM
